Measured values reported in US4540700A, “Treatment of diabetic complications with certain spiro-imidazolidine-diones” (Alcon Laboratories, Inc., priority 1984, dated 1985).

Test system: cataract formation in galactocemic rats
Assay: in vivo dose response by intubation (per oral) in galactocemic rats, cataract (vacuole) formation
Set-up: species or system Charles River CD (Sprague-Dawley derived) male rats
Description: B. In vivo dose response studies were conducted to test the in vivo activity of the following compounds by intubation (per oral) in galactocemic rats on a 30% galactose diet previously described:
Stock suspensions of the test compounds and all dilutions of the compound were formulated with 0.03% by weight Tween 80.
Healthy, Charles River CD (outbred albino, Sprague-Dawley derived) male rats, aged 20-30 days, without observable ocular defects and ranging in weight from 35-45 grams, were acclimated to experimental conditions (in quarantine) for two days prior to beginning the study.
Rats were individually assigned to one of twenty-three groups according to a random number schedule. Two rats, belonging to the same drug-diet treatment group, were housed per cage. Treatment and control groups consisted of six (6) rats each with no replacement in the event of death, and were designated as follows:
Lenses of all eyes were examined with a hand-held ophthalmoscope in the early stages of cataract development and a penlight for the stages, snowflake-like, snowflake, and nuclear cataract. Lens grading occurred every day for the first ten study days, and then every other day until study Day 14.
The relative potency determination was made at 7 drug levels over half log dose intervals. The response (percent cataracts formed and/or the time to cataract formation) was plotted against mg/kg and/or moles/kg.
The study was directed to the suppression and/or elimination of the initial stages of cataract development characterized by vacuoles or snowflake-likeopacities only. It was assumed therefore that suppression and/or elimination of vacuoles or lens opacification by the test drugs affects the transport, absorption and/or metabolism of galactose in such a manner as to prevent subsequent osmotic disturbances normally leading to tissue degeneration and advanced cataract. Advanced cataract defined as stages 2-4 of the Sipple classification was assumed to be of secondary importance to the etiology of cataract inhibition.
In the event where cataract stage other than vacuole formed, such as snowflake-like opacities, this cataract was counted similarly as vacuole in percent cataract formation.
This study yielded this expected effect in the control groups.
All animals were fed Purina Laboratory Chow and water, ad libitum, for the two day acclimation period. All drugs were dosed orally by intubation using an animal feeding needle (Popper and Sons), 18 or 20 gauge, attached to a 1 or 3 ml syringe. Once the dosing time schedule was established, the schedule was followed throughout the study to compensate for any diurnal variation.
The animals were kept on a twelve hour day/night cycle. The temperature and humidity were determined each day at the scheduled dosing time of 1:00 p.m.
The animals were weighed every other day and adjustments to dosage amounts to compensate for weight gain were made each day prior to the dose time. All food was routinely withheld from all animal groups for four hours (9:00 a.m.) prior to the drug dose and restored two hours (3:00 p.m.) post-dose. Otherwise sufficient amounts of chow or diet mixture were maintained in the food hopper to allow the animals to eat ad libitum. There were two days of drug dosage with the animals remaining on Purina Laboratory Chow (Days 1 and 2). The 30% galactose diet mixture was introduced to the animals two hours post-dose on Day 3 which constituted Day 1 of the study.
All eyes were examined with a hand-held ophthalmoscope and/or penlight at the times designated in the Experimental Design section.
It has been found in previous studies that dilation of the eye with a mydriactic (i.e. Mydriacyl) is not necessary for accurate grading, due to the semi-transparent nature of the rat iris. In the early stages (i.e., grades -, ±, and +) the lens was observed by reflecting the ophthalmoscope beam off the retina back through the lens and iris. Using this technique, vacuoles appear as dark, almost opaque patches. […]

[1] = relative to Sarges Racemic, observation day 12, 95% confidence limits

With `O=C1NC(=O)C2(N1)c1ccccc1-c1ccc(F)cc12` (racemic) [Compound L, dl-Spiro(2-fluorofluoren-9,4'-imidazolidine)-2',5'-dione] the “Percent of Rat Eyes With at Least Vacuoles Formed” value (shortened to “Percent”) (0.126 mg/kg p.o., Day 0) was 0%, the “Percent” value (0.126 mg/kg p.o., Day 1) was 0% and the “Percent” value (0.126 mg/kg p.o., Day 2) was 0%. The “Percent” value (0.126 mg/kg p.o., Day 3) was 0%, the “Percent” value (0.126 mg/kg p.o., Day 4) was 0% and the “Percent” value (0.126 mg/kg p.o., Day 5) was 0%. For the same molecule, the “Percent” value (0.126 mg/kg p.o., Day 6) was 33%, the “Percent” value (0.126 mg/kg p.o., Day 7) was 33% and the “Percent” value (0.126 mg/kg p.o., Day 8) was 50%. For the same molecule, the “Percent” value (0.126 mg/kg p.o., Day 9) was 50%, the “Percent” value (0.126 mg/kg p.o., Day 10) was 50% and the “Percent” value (0.126 mg/kg p.o., Day 12) was 83%. The “Percent” value (0.126 mg/kg p.o., Day 14) was 83%, the “Percent” value (0.4 mg/kg p.o., Day 0) was 0% and the “Percent” value (0.4 mg/kg p.o., Day 1) was 0%. For the same molecule, the “Percent” value (0.4 mg/kg p.o., Day 2) was 0%, the “Percent” value (0.4 mg/kg p.o., Day 3) was 0% and the “Percent” value (0.4 mg/kg p.o., Day 4) was 0%. The “Percent” value (0.4 mg/kg p.o., Day 5) was 0%, the “Percent” value (0.4 mg/kg p.o., Day 6) was 0% and the “Percent” value (0.4 mg/kg p.o., Day 7) was 8%. The “Percent” value (0.4 mg/kg p.o., Day 8) was 42%, the “Percent” value (0.4 mg/kg p.o., Day 9) was 42% and the “Percent” value (0.4 mg/kg p.o., Day 10) was 67%. The “Percent” value (0.4 mg/kg p.o., Day 12) was 83%, the “Percent” value (0.4 mg/kg p.o., Day 14) was 100% and the “Percent” value (1.26 mg/kg p.o., Day 0) was 0%. For the same molecule, the “Percent” value (1.26 mg/kg p.o., Day 1) was 0%, the “Percent” value (1.26 mg/kg p.o., Day 2) was 0% and the “Percent” value (1.26 mg/kg p.o., Day 3) was 0%. The “Percent” value (1.26 mg/kg p.o., Day 4) was 0%, the “Percent” value (1.26 mg/kg p.o., Day 5) was 0% and the “Percent” value (1.26 mg/kg p.o., Day 6) was 0.0%. For the same molecule, the “Percent” value (1.26 mg/kg p.o., Day 6, listed as 2-fluoro) was 0%, the “Percent” value (1.26 mg/kg p.o., Day 7) was 0% and the “Percent” value (1.26 mg/kg p.o., Day 8) was 0%. For the same molecule, the “Percent” value (1.26 mg/kg p.o., Day 9) was 0%, the “Percent” value (1.26 mg/kg p.o., Day 10) was 0% and the “Percent” value (1.26 mg/kg p.o., Day 12) was 0%. For the same molecule, the “Percent” value (1.26 mg/kg p.o., Day 14) was 0%, the “Percent” value (4.0 mg/kg p.o., Day 0) was 0% and the “Percent” value (4.0 mg/kg p.o., Day 1) was 0%. For the same molecule, the “Percent” value (4.0 mg/kg p.o., Day 2) was 0%, the “Percent” value (4.0 mg/kg p.o., Day 3) was 0% and the “Percent” value (4.0 mg/kg p.o., Day 4) was 0%. For the same molecule, the “Percent” value (4.0 mg/kg p.o., Day 5) was 0%, the “Percent” value (4.0 mg/kg p.o., Day 6) was 0.0% and the “Percent” value (4.0 mg/kg p.o., Day 6, listed as 2-fluoro) was 0%. The “Percent” value (4.0 mg/kg p.o., Day 7) was 0.0%, the “Percent” value (4.0 mg/kg p.o., Day 7, listed as 2-fluoro) was 0% and the “Percent” value (4.0 mg/kg p.o., Day 8) was 0.0%. For the same molecule, the “Percent” value (4.0 mg/kg p.o., Day 8, listed as 2-fluoro) was 0%, the “Percent” value (4.0 mg/kg p.o., Day 9) was 0.0% and the “Percent” value (4.0 mg/kg p.o., Day 9, listed as 2-fluoro) was 0%. For the same molecule, the “Percent” value (4.0 mg/kg p.o., Day 10) was 0.0%, the “Percent” value (4.0 mg/kg p.o., Day 10, listed as 2-fluoro) was 0% and the “Percent” value (4.0 mg/kg p.o., Day 12) was 0.0%. The “Percent” value (4.0 mg/kg p.o., Day 12, listed as 2-fluoro) was 0%, the “Percent” value (4.0 mg/kg p.o., Day 14) was 0.0% and the “Percent” value (4.0 mg/kg p.o., Day 14, listed as 2-fluoro) was 0%. The “Percent” value (12.6 mg/kg p.o., Day 0) was 0%, the “Percent” value (12.6 mg/kg p.o., Day 1) was 0% and the “Percent” value (12.6 mg/kg p.o., Day 2) was 0%. The “Percent” value (12.6 mg/kg p.o., Day 3) was 0%, the “Percent” value (12.6 mg/kg p.o., Day 4) was 0% and the “Percent” value (12.6 mg/kg p.o., Day 5) was 0%. The “Percent” value (12.6 mg/kg p.o., Day 6) was 0.0%, the “Percent” value (12.6 mg/kg p.o., Day 6, listed as 2-fluoro) was 0% and the “Percent” value (12.6 mg/kg p.o., Day 7) was 0.0%. The “Percent” value (12.6 mg/kg p.o., Day 7, listed as 2-fluoro) was 0%, the “Percent” value (12.6 mg/kg p.o., Day 8) was 0.0% and the “Percent” value (12.6 mg/kg p.o., Day 8, listed as 2-fluoro) was 0%. For the same molecule, the “Percent” value (12.6 mg/kg p.o., Day 9) was 0.0%, the “Percent” value (12.6 mg/kg p.o., Day 9, listed as 2-fluoro) was 0% and the “Percent” value (12.6 mg/kg p.o., Day 10) was 0.0%. For the same molecule, the “Percent” value (12.6 mg/kg p.o., Day 10, listed as 2-fluoro) was 0%, the “Percent” value (12.6 mg/kg p.o., Day 12) was 0.0% and the “Percent” value (12.6 mg/kg p.o., Day 12, listed as 2-fluoro) was 0%. The “Percent” value (12.6 mg/kg p.o., Day 14) was 0.0%, the “Percent” value (12.6 mg/kg p.o., Day 14, listed as 2-fluoro) was 0% and the “Percent” value (40 mg/kg p.o., Day 0) was 0%. The “Percent” value (40 mg/kg p.o., Day 1) was 0%, the “Percent” value (40 mg/kg p.o., Day 2) was 0% and the “Percent” value (40 mg/kg p.o., Day 3) was 0%. For the same molecule, the “Percent” value (40 mg/kg p.o., Day 4) was 0%, the “Percent” value (40 mg/kg p.o., Day 5) was 0% and the “Percent” value (40 mg/kg p.o., Day 6) was 0.0%. For the same molecule, the “Percent” value (40 mg/kg p.o., Day 6, listed as 2-fluoro) was 0%, the “Percent” value (40 mg/kg p.o., Day 7) was 0.0% and the “Percent” value (40 mg/kg p.o., Day 7, listed as 2-fluoro) was 0%. The “Percent” value (40 mg/kg p.o., Day 8) was 0.0%, the “Percent” value (40 mg/kg p.o., Day 8, listed as 2-fluoro) was 0% and the “Percent” value (40 mg/kg p.o., Day 9) was 0.0%. The “Percent” value (40 mg/kg p.o., Day 9, listed as 2-fluoro) was 0%, the “Percent” value (40 mg/kg p.o., Day 10) was 0.0% and the “Percent” value (40 mg/kg p.o., Day 10, listed as 2-fluoro) was 0%. The “Percent” value (40 mg/kg p.o., Day 12) was 0.0%, the “Percent” value (40 mg/kg p.o., Day 12, listed as 2-fluoro) was 0% and the “Percent” value (40 mg/kg p.o., Day 14) was 0.0%. For the same molecule, the “Percent” value (40 mg/kg p.o., Day 14, listed as 2-fluoro) was 0%, the “activity in vivo relative to the Sarges compound” value (rat studies) was “unexpectedly and significantly more active” and the “Relative Potency (antilog)” value [1] was 4.58. For the same molecule, the “log relative potency for eyes with vacuoles or more advanced cataracts” value [1] was 0.6605.
